Data: patent US6852328B1, “Method and device for protection of wooden objects proximate soil from pest invasion” (priority 1989, dated 2005)

What was measured:
Type in all cases: physicochemical
[1] = Release rate and longevity of high density polyethylene sheets as a function of thickness and temperature (Example 2); conditions: 10 wt % pesticide, 10 wt % carrier; for Longevity @ 23° C. / Longevity @ 35° C.: 80 wt % HDPE; for Release Rate @ 23° C.: sheet, 80 wt % high density polyethylene (MA 778000), 60 mil
Text: Controlled release devices in the form of sheets are made having 10% wt % pesticide, 10 wt % carrier and 80 wt % high density polyethylene (MA 778000).

[2] = Release rate and longevity of pellet (Example 4); conditions: pellet about 100 g, about 150 cm^2, 70 wt % HDPE, 20 wt % pesticide, 10 wt % carrier
Text: A pellet is made having a mass of about 100 g and a surface area of about 150 cm^2. The polymer is 70 wt % high density polyethylene, with 20 wt % pesticide and 10 wt % carrier. Comparing Table 4 to Table 3, it is evident that the encapsulated two-part construction provides longer life than the pellet.

[3] = Release rates of pesticide/polymer combinations, one inch squares cut from 1/8 inch sheets (Example 1); conditions: 10% pesticide
Text: The following controlled release devices were made and tested to obtain their release rates (Table 1). The devices were made as follows. All devices, except for those employing S-113 urethane, were injection molded into a thin sheet about ⅛ inch thick. The device employing S-113 urethane was case, a method typically used for thermoset polymers. All thermoplastics were formulated using sufficient amount of carbon black to carry pesticides. All thermoplastic polymers were formulated with 10 percent pesticide, 3 or 7 percent carbon black to absorb liquid pesticide and 87 to 83 percent by weight of polymer. Specifically, devices made from thermoplastic polymers and deltamethrin and lambdacyhalothrin contained 3 percent of carbon black. The devices made from the remaining pesticides and thermoplastic polymers contained 7 percent of carbon black.
The devices made from S-113 urethane (a thermoset polymer) were made from a polymer mix containing 60% S-113, 40% castor oil, and 5% of TIPA catalyst by weight. The polymer mix comprised 90% of the total weight of the device. The pesticide, deltamethrin, comprised the remaining 10% of the device. No carbon black was used in this device. The polymer/pesticide mixture was cast, using a spin caster into a ⅛ inch thick sheet and heated at about 60° C. for about 40 to 60 minutes to cure the cast sheet.
One inch squares were then cut from the thin sheets that were injection molded or cast, and the squares were tested for release rates as shown in Table 1.

[4] = Release rate and longevity of encapsulated two-part construction (Example 3); conditions: two-part device about 100 g, inner part 60 wt % pesticide, 40 wt % carrier, outer part HDPE 120 mil
Text: A device having an inner part surrounded by or encapsulated by an outer part is constructed having an overall mass of about 100 g. The inner part contains 60 wt % pesticide and 40 wt % carrier. The outer part is high density polyethylene of a thickness of 120 mil.

[5] = polymer EVA 763, injection molded 1/8 inch sheet, 3 or 7% carbon black
[6] = polymer Polyethylene MA78000, injection molded 1/8 inch sheet, 3 or 7% carbon black
[7] = polymer polyurethane 2200, injection molded 1/8 inch sheet, 3 or 7% carbon black
[8] = polymer polyurethane 3100, injection molded 1/8 inch sheet, 3 or 7% carbon black

Row | SMILES | Longevity @ 23° C. ([1]; sheet thickness 60 mil) [years] | Longevity @ 35° C. ([1]; sheet thickness 60 mil) [years] | Longevity @ 23° C. ([1]; sheet thickness 120 mil) [years] | Longevity @ 35° C. ([1]; sheet thickness 120 mil) [years] | Longevity @ 23° C. ([1]; sheet thickness 240 mil) [years] | Longevity @ 35° C. ([1]; sheet thickness 240 mil) [years] | Release Rate @ 23° C. [1] [μg/cm^2/day] | Longevity @ 23° C. [2] [years] | Release Rate @ 23° C. [2] [μg/cm^2/day] | Longevity @ 35° C. [2] [years] | Release Rate [3, 5] [μg/cm2/day] | Release Rate [3, 6] [μg/cm2/day] | Release Rate [3, 7] [μg/cm2/day] | Release Rate [3, 8] [μg/cm2/day] | Longevity @ 23° C. [4] [years] | Release Rate @ 23° C. [4] [μg/cm^2/day] | Longevity @ 35° C. [4] [years] | other results
1 | Cc1c(F)c(F)c(COC(=O)[C@@H]2[C@H](/C=C(\Cl)C(F)(F)F)C2(C)C)c(F)c1F (racemic) [Tefluthrin] | 9.1 | 3.1 | 18.2 | 5.9 | 39 | 10.4 | 1.3 | 33 | 11 | 16 | 40.4 | 27.0 | 25.0 | 6.4 | 35 | 31 | 18 | –
2 | c1ccc(-c2ccccc2)cc1 [Biphenyl] | 2.5 | 2.1 | 5.1 | 4.4 | 11.2 | 9.1 | 3.5 | 22 | 16 | 11 | – | – | – | – | 31 | 35 | 23 | –
3 | CC1(C)C(C=C(Cl)Cl)C1C(=O)OC(C#N)c1cccc(Oc2ccccc2)c1 (stereo not drawn) [Cypermethrin] | – | – | – | – | – | – | – | – | – | – | 27.3 | 4.6 | 0.7 | 0.4 | – | – | – | –
4 | CC1(C)[C@H](C(=O)O[C@H](C#N)c2cccc(Oc3ccccc3)c2)[C@@H]1C=C(Br)Br [Deltamethrin] | – | – | – | – | – | – | – | – | – | – | – | – | – | – | – | – | – | Release Rate ([3]; polymer Alipmtic PS-49-100, injection molded 1/8 inch sheet, 3% carbon black): 7.2 μg/cm2/day; Release Rate ([3]; polymer Aromatic 80A, injection molded 1/8 inch sheet, 3% carbon black): 16.8 μg/cm2/day; Release Rate ([3]; polymer S-113 urethane (thermoset), cast 1/8 inch sheet, no carbon black): 25.2 μg/cm2/day; Release Rate ([3]; polymer pellethane 2102-55D, injection molded 1/8 inch sheet, 3% carbon black): 8.0 μg/cm2/day; Release Rate ([3]; polymer pellethane 2102-80A, injection molded 1/8 inch sheet, 3% carbon black): 8.8 μg/cm2/day
5 | CCOP(=S)(OCC)Oc1cc(C)nc(C(C)C)n1 [Diazinon] | 1.1 | 0.6 | 2.3 | 1.3 | 4.8 | 2.7 | 11.7 | 8.1 | 45 | 5.1 | – | – | – | – | 39 | 28 | 24 | –
6 | Oc1ccc(Cl)cc1Cc1cc(Cl)ccc1O [Dichlorophen] | 1.6 | 1.4 | 3.3 | 3.0 | 6.8 | 6.4 | 6.2 | 33 | 11 | 16 | – | 6.2 | – | – | 56 | 24 | 28 | –
7 | CC1(C)[C@H](C(=O)O[C@H](C#N)c2cccc(Oc3ccccc3)c2)[C@@H]1/C=C(\Cl)C(F)(F)F [Lambdacyhalothrin] | – | – | – | – | – | – | – | – | – | – | 20.6 | 5.2 | 2.0 | 0.7 | – | – | – | –
8 | CC1(C)C(C=C(Cl)Cl)C1C(=O)OCc1cccc(Oc2ccccc2)c1 (stereo not drawn) [Permethrin] | 8.6 | 3.2 | 17 | 6.5 | 35 | 13 | 1.5 | 30 | 12 | 14 | 28.5 | 4.0 | 1.3 | 1.4 | 68 | 16 | 38 | –
